Consider one molecule from US20230130766A1 (SALK INSTITUTE FOR BIOLOGICAL STUDIES, priority 2020, published 2023).

In general, IC50 refers to the concentration that gives 50% inhibition.

One experiment addresses T1, ULK1 (Homo sapiens, UniProt O75385).
T1 sequence (O75385 1-1050): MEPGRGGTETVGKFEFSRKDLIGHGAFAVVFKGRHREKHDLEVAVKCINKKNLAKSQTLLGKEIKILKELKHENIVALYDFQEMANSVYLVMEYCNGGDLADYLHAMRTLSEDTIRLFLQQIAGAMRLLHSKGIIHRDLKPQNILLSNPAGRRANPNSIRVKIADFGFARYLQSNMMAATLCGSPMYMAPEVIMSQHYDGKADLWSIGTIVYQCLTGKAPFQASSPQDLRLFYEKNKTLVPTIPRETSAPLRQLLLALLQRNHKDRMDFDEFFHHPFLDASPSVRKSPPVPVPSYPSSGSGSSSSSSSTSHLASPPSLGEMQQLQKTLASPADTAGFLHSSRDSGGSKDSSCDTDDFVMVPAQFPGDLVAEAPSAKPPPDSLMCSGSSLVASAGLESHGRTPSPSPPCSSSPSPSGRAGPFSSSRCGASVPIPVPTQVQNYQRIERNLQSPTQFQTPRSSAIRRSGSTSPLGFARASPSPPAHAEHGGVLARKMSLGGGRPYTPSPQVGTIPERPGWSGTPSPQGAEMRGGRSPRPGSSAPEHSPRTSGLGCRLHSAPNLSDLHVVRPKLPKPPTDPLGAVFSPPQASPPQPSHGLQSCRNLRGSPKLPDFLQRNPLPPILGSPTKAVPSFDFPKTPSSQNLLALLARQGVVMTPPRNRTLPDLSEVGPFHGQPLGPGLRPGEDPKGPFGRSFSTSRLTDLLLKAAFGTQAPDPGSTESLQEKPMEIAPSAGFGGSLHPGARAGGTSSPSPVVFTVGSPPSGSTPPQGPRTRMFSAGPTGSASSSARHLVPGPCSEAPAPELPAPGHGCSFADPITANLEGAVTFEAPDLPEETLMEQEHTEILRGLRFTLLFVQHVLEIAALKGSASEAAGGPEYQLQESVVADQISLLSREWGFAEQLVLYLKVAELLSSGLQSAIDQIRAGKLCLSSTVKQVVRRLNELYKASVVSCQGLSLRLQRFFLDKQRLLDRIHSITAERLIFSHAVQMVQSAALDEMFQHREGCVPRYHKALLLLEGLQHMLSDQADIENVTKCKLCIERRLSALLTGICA
As to the kind of experiment: ULK1 inhibition assay. The following applies: * = tested as a mixture of regioisomers. It counts as biochemical.

The next experiment concerns NCI-H358 cells. The experiment can be described thus: H358 xenografts treated with ULK inhibitor alone. The settings on record: 30 mg/kg twice daily. It counts as in vivo, nude mice. How it is done:
NCI-H358 cells (5M cells) were injected bilaterally into the flanks of twenty nude mice to create tumor xenografts in order to assess the efficacy of Compound 14 in treating non-small cell lung cancer tumors. After 32 days of letting tumor cells proliferate (at which point tumors had reach ˜200 mm^3 in volume), one cohort of ten mice was administered 30 mg/kg twice daily doses of Compound 14, and the remaining mice administered vehicle alone. Treatment and monitoring was continued until day 72 post inoculation of tumor cells.

A further experiment has as its system NCI-H460 cells. The experiment can be described thus: NCI-H460 xenografts treated with ULK inhibitor alone. Format: in vivo, nude mice. The following applies: 30 mg/kg twice daily. How it is done: NCI-H460 cells (2.5M cells) were injected bilaterally into the flanks of twenty-four nude mice to create tumor xenografts in order to assess the efficacy of Compound 14 in treating non-small cell lung cancer tumors. After 14 days of letting tumor cells proliferate (at which point tumors had reach ˜200 mm^3 in volume), one cohort of twelve mice was administered 30 mg/kg twice daily doses of Compound 14, and the remaining mice administered vehicle alone. Treatment and monitoring were continued until day 23 post inoculation of tumor cells (9 days of treatment).

The subject of another experiment is A549 cells. The experiment can be described thus: A549 xenografts, ULK inhibitor alone and in combination with carboplatin. It counts as in vivo, nude mice. As to the method:
A549 cells (5M cells) were injected bilaterally into the flanks of thirty-six nude mice to create tumor xenografts in order to assess the efficacy of Compound 14 in treating non-small cell lung cancer tumors both alone and in combination with carboplatin, the current standard of care therapy for non-small cell lung cancer. After 11 days of letting tumor cells proliferate (at which point tumors were ˜50 mm^3 in volume), administration of carboplatin, Compound 14, or combinations began. One cohort of six mice received 20 mg/kg twice daily doses of Compound 14 alone, one cohort of six mice received 30 mg/kg twice daily doses of Compound 14 alone, one cohort of six mice received 25 mg/kg doses of carboplatin every three days, one cohort of six mice received 20 mg/kg twice daily doses of Compound 14 in conjunction with 25 mg/kg doses of carboplatin every three days, one cohort of six mice received 30 mg/kg twice daily doses of Compound 14 in conjunction with 25 mg/kg doses of carboplatin every three days, and the remaining six mice were treated with vehicle. Treatment and monitoring was continued until day 53 post inoculation of tumor cells (42 days of treatment).

For experiment [1], the system named is ULK1, phosphorylated ATG13. The experiment can be described thus: Western blot analysis of MIA PaCa-2 xenograft tumors. It counts as in vivo, nude mice. The settings on record: MIA PaCa-2 xenograft tumors at end of experiment, 20 mg/kg twice daily. As to the method:
MIA PaCa-2 cells were injected bilaterally into the flanks of nude mice to create tumor xenografts in order to assess the efficacy of Compound 14 in treating pancreatic cancer tumors compared to gemcitabine, a current standard of care therapy for pancreatic cancer. After 3 days of letting tumor cells proliferate (at which point tumors were ˜100 mm^3 in volume), administration of gemcitabine or Compound 14 was initiated. One cohort received 20 mg/kg twice daily doses of Compound 14, one cohort received gemcitabine, and the remaining cohort was treated with vehicle. Treatment and monitoring were continued until day 42 post inoculation of tumor cells (30 days of treatment).
On the technique in general: Immunoblotting shows a protein as a band on a membrane.

A further experiment concerns MIA PaCa-2 cells. As to the kind of experiment: MIA PaCa-2 xenografts, ULK inhibitor alone and in combination with trametinib. It counts as in vivo, nude mice. The following applies: day 25. As to the method:
MIA PaCa-2 cells were injected bilaterally into the flanks nude mice to create tumor xenografts in order to assess the efficacy of Compound 14 in treating pancreatic cancer tumors alone and in combination with trametinib, an MEK inhibitor and current standard of care therapy for the treatment of pancreatic cancer. After letting tumor cells proliferate to the point where tumors had reach ˜300 mm^3 in volume, one cohort of mice was administered 20 mg/kg daily doses of Compound 14, one cohort of mice was administered 30 mg/kg daily doses of Compound 14, one cohort of mice was administered 1 mg/kg daily doses of trametinib, one cohort of mice was administered 1 mg/kg daily doses of trametinib in combination with 20 mg/kg daily doses of Compound 14, one cohort of mice was administered 1 mg/kg daily doses of trametinib in combination with 30 mg/kg daily doses of Compound 14, and the remaining cohort of mice was administered vehicle alone. Treatment and monitoring were continued for 25 days.

In the case of `CNC(=O)c1ccccc1Nc1nc(Nc2cc(OC)c(OC)c(OC)c2)ncc1Br` [Compound 14], the IC50 at ULK1 is under 200 nM. For the same molecule, in the experiment with NCI-H358 cells, the “% growth of tumor cells relative to the start of treatment” value was “clear reduction in average tumor size”. The average tumor volume result is “no growth during the monitoring period, and even a decrease in tumor size” in the experiment with NCI-H358 cells (day 32 to day 72 post inoculation); “substantially reduced growth during the monitoring period compared to the control” in the experiment with NCI-H460 cells (9 days of treatment). The “average tumor mass at the end of the study” value with NCI-H358 cells (day 35 post treatment) is “substantially smaller overall tumor burden compared to control”; in the experiment on A549 cells (30 mg/kg twice daily alone, 42 days of treatment), “smallest tumors”; in the experiment on A549 cells (both combinations: Compound 14 20 or 30 mg/kg twice daily with carboplatin 25 mg/kg every three days, 42 days), “smallest tumors”; in the experiment with MIA PaCa-2 cells (both combinations: trametinib 1 mg/kg daily with Compound 14 20 or 30 mg/kg daily) it was “substantially less tumor mass compared to control and each mono-therapy”. The “% growth of tumor relative to the start of treatment” value in the experiment with NCI-H460 cells is given as “clear reduction in tumor growth”. For the same molecule, the tumor growth result in the experiment on NCI-H460 cells (after 3 days of treatment) is on record as “tumor growth had virtually stopped”. Moreover, the “less tumor mass than vehicle treated mice” value with NCI-H460 cells (day 9 post treatment) is reported as about 50%. Besides, in the experiment with A549 cells (20 mg/kg twice daily alone, day 53), the “final tumor average volume” value was about 150 mm^3. Besides, the “tumor volume at the end of the study” value with A549 cells (30 mg/kg twice daily alone, day 53) was about 50 mm^3; in the experiment on A549 cells (both combinations: Compound 14 20 or 30 mg/kg twice daily with carboplatin 25 mg/kg every three days, day 53), about 50 mm^3. The “tumor growth compared to the control” value in the experiment on A549 cells (monotherapy: carboplatin 25 mg/kg every three days, Compound 14 20 mg/kg twice daily) is “markedly reduced growth compared to the control”. Moreover, the “ULK1 levels in tumor (Western blot)” value in experiment [1] is given as “reduced ULK1 levels compared to vehicle treated”. Besides, the “levels of phosphorylated ATG13 in tumor (Western blot)” value in experiment [1] was “reduced levels of phosphorylated ATG13”. For the same molecule, the “total levels of ATG13 in tumor (Western blot)” value in experiment [1] (versus vehicle) is “comparable”. For the same molecule, in the experiment with MIA PaCa-2 cells (20 mg/kg daily alone), the “final tumor size (average)” value is about 1000 mm^3.
